This is an account of results in ChEMBL document CHEMBL1146553, “Antiparasitic alkaloids from Psychotria klugii” (J Nat Prod, 2003).

One series has as its system Leishmania donovani. Briefly: Antileishmanial activity against Leishmania donovani promastigotes after 72 hrs. Type of series: functional, organism-based.
Series [1] concerns Plasmodium falciparum. Briefly: Antimalarial activity against chloroquine-sensitive Plasmodium falciparum D6 by LDH reporter assay. Format: functional, organism-based.
Series [2] concerns Plasmodium falciparum. Nature of the series: Antimalarial activity against chloroquine-resistant Plasmodium falciparum W2 by LDH reporter assay. Type of series: functional, organism-based.
The test system of series [3] is Vero. Briefly: Cytotoxicity against african green monkey Vero cells at 10 ug/ml. Type of series: cell-based. As to conditions: chlorocebus sabaeus.
A short description of series [4]: in vitro. The conditions noted are these: monkey, Vero cells.
Description: Selectivity index, ratio of IC50 for african green monkey (Cercopithecus aethiops) Vero cells to IC50 for chloroquine-sensitive Plasmodium falciparum D6
Series [5] is described as follows: in vitro. As to conditions: monkey, Vero cells. The source holds these as a separate data set.
Description: Selectivity index, ratio of IC50 for african green monkey (Cercopithecus aethiops) Vero cells to IC50 for chloroquine-resistant Plasmodium falciparum W2
Series [6] concerns Vero. Briefly: Cytotoxicity against african green monkey Vero cells. Format: cell-based. The conditions noted are these: chlorocebus sabaeus.
For a further series, the system named is SK-MEL. Nature of the series: Cytotoxicity against human SK-MEL cells. Format: functional, cell-based.
For another series, the system named is KB. Nature of the series: Cytotoxicity against human KB cells. Type of series: functional, cell-based.
Another series deals with BT-549. Briefly: Cytotoxicity against human BT549 cells. Format: functional, cell-based.
The test system of the next series is SK-OV-3. Nature of the series: Cytotoxicity against human SKOV3 cells. Format: functional, cell-based.
The test system of the next series is HL-60. Nature of the series: Cytotoxicity against human HL60 cells by XTT assay. Type of series: functional, cell-based.
Series [7] addresses T1, Integrin alpha-L (Homo sapiens) (UniProt P20701).
T1 sequence (whole entry): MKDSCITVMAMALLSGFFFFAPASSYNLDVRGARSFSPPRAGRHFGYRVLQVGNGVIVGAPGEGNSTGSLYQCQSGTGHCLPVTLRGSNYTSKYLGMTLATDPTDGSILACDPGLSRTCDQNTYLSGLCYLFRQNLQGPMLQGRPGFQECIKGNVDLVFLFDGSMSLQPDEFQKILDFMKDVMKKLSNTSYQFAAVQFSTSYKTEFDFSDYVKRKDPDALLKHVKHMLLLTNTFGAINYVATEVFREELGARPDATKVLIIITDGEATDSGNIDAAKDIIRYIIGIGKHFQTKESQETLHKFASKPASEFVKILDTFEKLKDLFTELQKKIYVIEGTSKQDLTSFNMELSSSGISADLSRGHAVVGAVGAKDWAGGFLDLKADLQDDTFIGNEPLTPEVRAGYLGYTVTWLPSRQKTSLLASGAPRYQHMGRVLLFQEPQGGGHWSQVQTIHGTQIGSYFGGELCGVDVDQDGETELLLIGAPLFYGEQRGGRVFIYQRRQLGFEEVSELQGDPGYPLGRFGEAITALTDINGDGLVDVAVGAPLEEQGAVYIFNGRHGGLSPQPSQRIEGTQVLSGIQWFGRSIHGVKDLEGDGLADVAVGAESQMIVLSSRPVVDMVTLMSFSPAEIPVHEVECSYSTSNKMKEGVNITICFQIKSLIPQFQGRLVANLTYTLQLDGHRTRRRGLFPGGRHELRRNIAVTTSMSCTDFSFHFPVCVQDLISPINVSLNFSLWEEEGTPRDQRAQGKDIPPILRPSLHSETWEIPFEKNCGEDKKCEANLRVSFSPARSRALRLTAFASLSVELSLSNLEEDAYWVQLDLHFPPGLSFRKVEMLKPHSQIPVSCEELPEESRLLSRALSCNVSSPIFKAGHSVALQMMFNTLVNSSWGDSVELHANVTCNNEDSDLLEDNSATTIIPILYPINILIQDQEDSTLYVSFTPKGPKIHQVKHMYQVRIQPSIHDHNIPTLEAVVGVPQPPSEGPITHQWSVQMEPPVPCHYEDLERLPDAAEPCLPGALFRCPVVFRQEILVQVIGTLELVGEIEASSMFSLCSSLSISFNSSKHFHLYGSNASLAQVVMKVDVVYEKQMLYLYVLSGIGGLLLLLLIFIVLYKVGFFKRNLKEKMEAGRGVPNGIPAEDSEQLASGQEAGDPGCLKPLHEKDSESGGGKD
Nature of the series: Inhibition of LFA1:CD11a/CD18/ICAM1- mediated aggregation in PMA-induced human HL60 cells. Type of series: cell-based. The conditions noted are these: HL-60.

Series [8] is described as follows: Specific index, ratio of IC50 for human HL60 cells to MIC for LFA1:CD11a/CD18/ICAM1- mediated aggregation in PMA-induced human HL60 cells. Type of series: functional, HL-60.
Series [9] can be described thus: Specific index, ratio of IC50 for human HL60 cells to MIC for LFA1:CD11a/CD18/ICAM1-mediated human HL60 cell adhesion to human HeLa cells. Format: functional.
The target of series [10] is T1, Integrin alpha-L (Homo sapiens). Briefly: Inhibition of LFA1:CD11a/CD18/ICAM1-mediated human HL60 cell adhesion to human HeLa cells expressing ICAM1 by fluorescence analysis. Format: cell-based.

Each structure is given as a SMILES string. Converted amounts (≈) assume the structure as drawn. The source made the active and inactive calls. The calls are words filed in the database; no cut-off is given here. Some results are limits rather than exact numbers.

Regarding `CC[C@H]1CN2CCc3cc(OC)c(OC)cc3[C@@H]2C[C@@H]1C[C@@H]1NCCc2cc(O)c(O)cc21`, the IC50 in the series with Leishmania donovani was 7.5 µg/mL (≈ 16.6 µM); with Plasmodium falciparum [1], 1.5 µg/mL (≈ 3.31 µM); with Plasmodium falciparum [2] it was 3.07 µg/mL (≈ 6.78 µM). Moreover, it took 19 µg/mL (≈ 42 µM) to reach the 90% level in the series on Leishmania donovani (IC90). In the series on Vero [3], the Activity entry is listed as “Non-toxic”. In addition, the selectivity ratio was over 7 in the series “in vitro [4]” and over 3 in the series “in vitro [5]”.

With `C[C@@H]1[C@H](O)[C@@H](C)/C=C/C=C/C=C/C=C/C=C/C=C/C=C/[C@H](O[C@@H]2O[C@H](C)[C@@H](O)[C@H](N)[C@@H]2O)C[C@@H]2O[C@](O)(C[C@@H](O)C[C@@H](O)[C@H](O)CC[C@@H](O)C[C@@H](O)CC(=O)O[C@H]1C)C[C@H](O)[C@H]2C(=O)O` [AMPHOTERICIN B], in the series on Leishmania donovani, inhibition was half-maximal at 0.17 µg/mL (≈ 0.184 µM) (IC50) and the IC90 came out at 0.28 µg/mL (≈ 0.303 µM).

As for `C[C@@H]1CC[C@H]2[C@@H](C)C(=O)O[C@@H]3O[C@@]4(C)CC[C@@H]1[C@]32OO4` [ARTEMISININ], the IC50 in the series on Plasmodium falciparum [1] was 0.0143 µg/mL (≈ 0.0506 µM); in the series with Plasmodium falciparum [2], 0.0085 µg/mL (≈ 0.0301 µM). Moreover, in the series with Vero [3], the Activity result was “Non-toxic”. Besides, the selectivity ratio in the series “in vitro [4]” is over 699; in “in vitro [5]”, over 1180.

Regarding `CC[C@H]1CN2CCc3cc(OC)c(OC)cc3[C@@H]2C[C@@H]1C[C@H]1NCCc2cc(O)c(OC)cc21` [CEPHAELINE], the IC50 in the series with Leishmania donovani was determined as 0.03 µg/mL (≈ 0.0643 µM); in the series with Plasmodium falciparum [1], 0.038 µg/mL (≈ 0.0814 µM); in the series with Plasmodium falciparum [2] it was 0.0277 µg/mL (≈ 0.0594 µM); in the series with Vero [6], 5.3 µg/mL (≈ 11.4 µM); in the series with SK-MEL it was 0.25 µg/mL (≈ 0.536 µM); in the series on KB it was 0.33 µg/mL (≈ 0.707 µM). The IC50 was found to be 0.86 µg/mL (≈ 1.84 µM) in the series on BT-549, 0.18 µg/mL (≈ 0.386 µM) in the series with SK-OV-3 and 14.9 µg/mL (≈ 31.9 µM) in the series with HL-60. In the series with Leishmania donovani, this compound had an IC90 of 1.5 µg/mL (≈ 3.21 µM). Besides, the MIC in [7] turned out to be 6.9 µg/mL (≈ 14.8 µM). For the same compound, the Ratio in [8] is reported as 2.17. Further, the selectivity ratio in “in vitro [4]” came to 132; in the series “in vitro [5]” it was 193.

As for `CCN(CC)CCCC(C)Nc1ccnc2cc(Cl)ccc12` (centres undefined) [CHLOROQUINE], the Activity result with Vero [3] was “Non-toxic”.

The compound `C=C1[C@@H](C)[C@H]2[C@H](Cc3ccccc3)NC(=O)[C@]23OC(=O)/C=C/[C@H](O)CCC[C@@H](C)C/C=C/[C@H]3[C@@H]1O` [CYTOCHALASIN B] gave a 50% inhibitory concentration (IC50) with HL-60 of over 30 µg/mL. Besides, the MIC in [7] was 2.5 µg/mL (≈ 5.21 µM). Also, the values for the Ratio in series [8] and in series [9] were 13 and over 5.5, respectively.

Regarding `COc1cccc2c1C(=O)c1c(O)c3c(c(O)c1C2=O)C[C@@](O)(C(=O)CO)C[C@@H]3O[C@H]1C[C@H](N)[C@H](O)[C@H](C)O1` [DOXORUBICIN], the IC50 in the series with SK-MEL was 1.57 µg/mL (≈ 2.89 µM); with KB it was 1.7 µg/mL (≈ 3.13 µM); in the series on BT-549, 1 µg/mL (≈ 1.84 µM); in the series on SK-OV-3 it was 1.53 µg/mL (≈ 2.81 µM).

In the case of `CC[C@H]1CN2CCc3cc(OC)c(OC)cc3[C@@H]2C[C@@H]1C[C@H]1NCCc2cc(OC)c(OC)cc21` [EMETINE], the IC50 in the series on Leishmania donovani is 0.03 µg/mL (≈ 0.0624 µM); in the series on Plasmodium falciparum [1], 0.0727 µg/mL (≈ 0.151 µM); with Plasmodium falciparum [2], 0.078 µg/mL (≈ 0.162 µM); in the series on Vero [6] it was 0.42 µg/mL (≈ 0.874 µM); in the series on HL-60, 0.38 µg/mL (≈ 0.791 µM). Besides, in the series on Leishmania donovani, the 90% effect level (IC90) was put at 0.13 µg/mL (≈ 0.27 µM). In [7], the MIC stood at 0.26 µg/mL (≈ 0.541 µM). In addition, in series [8], the Ratio was determined as 1.53. Besides, the selectivity ratio was 6 in “in vitro [4]” and 5 in “in vitro [5]”.

For `CC[C@H]1CN2CCc3cc(OC)c(OC)cc3[C@@H]2C[C@@H]1C[C@@H]1NCCc2cc(O)c(OC)cc21` [ISOCEPHAELINE], the IC50 in the series with Leishmania donovani was 0.45 µg/mL (≈ 0.964 µM); in the series with Plasmodium falciparum [1], 0.187 µg/mL (≈ 0.4 µM); in the series on Plasmodium falciparum [2], 0.29 µg/mL (≈ 0.621 µM); in the series on SK-MEL it was over 10 µg/mL; with KB, over 10 µg/mL; in the series with BT-549, over 10 µg/mL. In the series on SK-OV-3, this compound returned an IC50 of over 10 µg/mL. For the same compound, the concentration for an effect of 90% (IC90) in the series with Leishmania donovani was 0.98 µg/mL (≈ 2.1 µM). The Activity result in the series with Vero [3] is on record as “Non-toxic”. Also, the selectivity ratio in “in vitro [4]” is over 54; in the series “in vitro [5]”, over 35.

For `CC[C@H]1CN2CCc3cc(O)c(OC)cc3[C@@H]2C[C@@H]1C[C@@]1(O)NCCc2cc(O)c(OC)cc21` [KLUGINE], the IC50 in the series on Leishmania donovani was 0.4 µg/mL (≈ 0.854 µM); with Plasmodium falciparum [1], 0.0377 µg/mL (≈ 0.0805 µM); in the series with Plasmodium falciparum [2], 0.0463 µg/mL (≈ 0.0988 µM); in the series on SK-MEL, over 10 µg/mL; in the series on KB, over 10 µg/mL; in the series with BT-549, over 10 µg/mL. The IC50 with SK-OV-3 was over 10 µg/mL; with HL-60, 25 µg/mL (≈ 53.4 µM). Also, in the series with Leishmania donovani, it took 2.5 µg/mL (≈ 5.34 µM) to reach the 90% level (IC90). For the same compound, in the series on Vero [3], the Activity entry was “Non-toxic”. Also, the MIC in series [7] was found to be 20.8 µg/mL (≈ 44.4 µM). The Ratio in series [8] was 1.2. Moreover, the outcome in series [10] was inactive. The figures for the selectivity ratio in “in vitro [4]” and in the series “in vitro [5]” were over 265 and over 217, respectively.

In turn, `N=C(N)c1ccc(OCCCCCOc2ccc(C(=N)N)cc2)cc1` [PENTAMIDINE] came in with an IC90 in the series on Leishmania donovani of 2.4 µg/mL (≈ 7.05 µM).
